# Target: human mGluR2 (Homo sapiens (Human), UniProt Q14416)
# Test: MGluR2 cAMP assay
# Assay type: cell-based
# Details: HEK293 cells clonally expressing human mGluR2, 1 μM forskolin, 1 μM LY-341495
# Protocol: Clonally expressed human mGluR2 in HEK293 background was glutamate starved overnight in media without glutamine (GIBCO MEM 12360), containing 10% FBS, 1% penicillin streptomycin.
# On the day of the assay, media was removed, cells washed with PBS, cells harvested and pelleted by centrifugation. Cell pellets were resuspended in stimulation buffer without forskolin and counted. A solution of 1.25×10^6 cells/ml was prepared and dispensed to plates using a Combi liquid handler (Thermo). A standard curve was created using a top concentration of cAMP of 1 μM in the stimulation buffer, 1:3 dilutions over 14 points in the absence of cells. Plates were read by time-resolved fluorescence at […] and a ratio was calculated via in house software, (665 nM/618 nM)*10^4. In house software converted the fluorescence value ratios to units of cAMP concentration, which is then used to calculate % inhibition for each test compound.
# Compounds were added to white, standard volume 384 non-binding surface plates (Corning 3574). Cells were resuspended in stimulation buffer consisting of Hanks Balanced Salt Solution (14175-095) pH 7.0, 20 mM HEPES, 2.0 mM CaCl2, 5.0 mM MgCl2, and 1 mM IBMX (Sigma 15879), 1 μM forskolin, and 1 μM LY-341495, for 30 minutes. Buffer without forskolin was used as a negative control. Solutions of D2 and cryptate detection reagents from the CISBIO dynamic cAMP kit (62AM4PEJ) were diluted 1:40 in lysis buffer. Lysis buffer consisted of 50 mM Phosphate Buffer pH 7.0, 800 mM Potassium Fluoride, 0.2% BSA, and 1.0% Triton. Assay reaction was terminated by addition of detection reagents in lysis buffer. One hour later, plates were read on a PE Viewlux. Data was extracted, and concentration response curves generated by fitting the data to a standard 4 parameter logistic equation from which EC50 values were determined See table 1: A: <10 nM; B: 10-100 nM; C: 100-1000 nM; D: 1000-10000 nM.
# Sequence of human mGluR2 (Q14416 19-872): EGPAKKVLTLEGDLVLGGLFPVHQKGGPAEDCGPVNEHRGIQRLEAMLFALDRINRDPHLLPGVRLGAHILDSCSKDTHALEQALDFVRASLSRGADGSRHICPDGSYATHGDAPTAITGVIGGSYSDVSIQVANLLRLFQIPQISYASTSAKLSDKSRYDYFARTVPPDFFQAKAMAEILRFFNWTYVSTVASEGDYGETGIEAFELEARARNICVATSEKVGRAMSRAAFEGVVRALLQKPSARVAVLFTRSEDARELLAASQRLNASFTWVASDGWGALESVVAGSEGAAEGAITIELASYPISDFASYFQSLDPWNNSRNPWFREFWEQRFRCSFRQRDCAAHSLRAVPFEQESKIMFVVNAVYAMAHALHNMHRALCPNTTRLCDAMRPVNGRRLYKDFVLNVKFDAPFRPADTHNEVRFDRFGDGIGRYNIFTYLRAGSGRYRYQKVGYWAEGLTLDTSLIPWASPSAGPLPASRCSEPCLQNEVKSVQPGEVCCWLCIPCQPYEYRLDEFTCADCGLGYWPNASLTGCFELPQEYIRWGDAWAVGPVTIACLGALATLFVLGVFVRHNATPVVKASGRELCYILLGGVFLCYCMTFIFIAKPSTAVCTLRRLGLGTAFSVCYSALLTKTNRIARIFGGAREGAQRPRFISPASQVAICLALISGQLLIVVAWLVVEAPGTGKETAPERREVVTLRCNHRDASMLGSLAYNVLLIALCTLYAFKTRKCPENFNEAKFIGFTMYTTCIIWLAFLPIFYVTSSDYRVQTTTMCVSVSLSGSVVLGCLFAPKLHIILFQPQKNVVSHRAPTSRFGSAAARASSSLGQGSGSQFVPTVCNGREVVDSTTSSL
row,Structure (SMILES),EC50 [µM]
1,"COc1cccc(F)c1C1CC1CNc1cnn2c(CC(F)(F)F)nnc2c1Cl (centres unmarked) [Example 40, 8-Chloro-N-((2-(2-fluoro-6-methoxyphenyl)cyclopropyl)methyl)-3-(2,2,2-trifluoroethyl)-[1,2,4]triazolo[4,3-b]pyridazin-7-amine]",0.031
2,"COc1cccc(F)c1C1CCN(c2cnn3c(CC4CC4)nnc3c2C(F)(F)F)CC1 [Example 71, 3-(Cyclopropylmethyl)-7-(4-(2-fluoro-6-methoxyphenyl)piperidin-1-yl)-8-(trifluoromethyl)-[1,2,4]triazolo[4,3-b]pyridazine]",0.004
3,"Fc1ccc(C2CCN(c3ncn4c(CC(F)(F)F)nnc4c3Cl)CC2)cc1 [Example 69, 8-Chloro-7-(4-(4-fluorophenyl)piperidin-1-yl)-3-(2,2,2-trifluoroethyl)-[1,2,4]triazolo[4,3-c]pyrimidine]",0.438
4,"Fc1ccccc1C1CCN(c2ncn3c(CC(F)(F)F)nnc3c2Cl)CC1 [Example 67, 8-Chloro-7-(4-(2-fluorophenyl)piperidin-1-yl)-3-(2,2,2-trifluoroethyl)-[1,2,4]triazolo[4,3-c]pyrimidine]",0.005
5,"COc1cccc(F)c1C1CCN(c2cnn3c(CC(F)(F)F)nnc3c2Cl)CC1 [Example 26, 8-Chloro-7-(4-(2-fluoro-6-methoxyphenyl)piperidin-1-yl)-3-(2,2,2-trifluoroethyl)-[1,2,4]triazolo[4,3-b]pyridazine]",0.002
6,"COc1ccccc1[C@@H]1C[C@H]1CNc1cnn2c(CC(F)(F)F)nnc2c1C(F)(F)F (relative stereo) [Example 85, Trans-N-((2-(2-methoxyphenyl)cyclopropyl)methyl)-3-(2,2,2-trifluoroethyl)-8-(trifluoromethyl)-[1,2,4]triazolo[4,3-b]pyridazin-7-amine]",0.01
7,"COC(=O)c1ccccc1C1CCN(c2cnn3c(CC(F)(F)F)nnc3c2Cl)CC1 [Example 32, Methyl 2-(1-(8-chloro-3-(2,2,2-trifluoroethyl)-[1,2,4]triazolo[4,3-b]pyridazin-7-yl)piperidin-4-yl)benzoate]",0.015
8,"Fc1ccc(C2CCN(c3cnn4c(CC(F)(F)F)nnc4c3Cl)CC2)c(F)c1 [Example 75, 8-Chloro-7-(4-(2,4-difluorophenyl)piperidin-1-yl)-3-(2,2,2-trifluoroethyl)-[1,2,4]triazolo[4,3-b]pyridazine]",0.016
9,"COc1ccc(OC)c(C2CCN(c3cnn4c(CC(F)(F)F)nnc4c3Cl)CC2)c1 [Example 36, 8-Chloro-7-(4-(2,5-dimethoxyphenyl)piperidin-1-yl)-3-(2,2,2-trifluoroethyl)-[1,2,4]triazolo[4,3-b]pyridazine]",0.007
10,"O=C1Oc2ccccc2C12CCN(c1cnn3c(CC(F)(F)F)nnc3c1Cl)CC2 [Example 63, 1′-(8-Chloro-3-(2,2,2-trifluoroethyl)-[1,2,4]triazolo[4,3-b]pyridazin-7-yl)-2H-spiro[benzofuran-3,4′-piperidin]-2-one]",0.185
11,"COc1c(F)ccc(F)c1C1CCN(c2cnn3c(CC4CC4)nnc3c2C(F)(F)F)CC1 [Example 80, 3-(Cyclopropylmethyl)-7-(4-(3,6-difluoro-2-methoxyphenyl)piperidin-1-yl)-8-(trifluoromethyl)-[1,2,4]triazolo[4,3-b]pyridazine]",0.0002
12,"Fc1cc(OC(F)F)c(C2CCN(c3cnn4c(CC(F)(F)F)nnc4c3Cl)CC2)cc1F [Example 53, 8-Chloro-7-(4-(2-(difluoromethoxy)-4,5-difluorophenyl)piperidin-1-yl)-3-(2,2,2-trifluoroethyl)-[1,2,4]triazolo[4,3-b]pyridazine]",0.006

# Results, then the compound that gave them:
row,EC50 [µM],Structure (SMILES)
1,0.02,"Fc1ccccc1C1CCN(c2cnn3c(CC(F)(F)F)nnc3c2Cl)CC1 [Example 25, 8-Chloro-7-(4-(2-fluorophenyl)piperidin-1-yl)-3-(2,2,2-trifluoroethyl)-[1,2,4]triazolo[4,3-b]pyridazine]"
2,0.019,"Clc1c(N2CCC(c3ccccc3)CC2)cnn2c(CC3CC3)nnc12 [Example 5, 8-Chloro-3-(cyclopropylmethyl)-7-(4-phenylpiperidin-1-yl)-[1,2,4]triazolo[4,3-b]pyridazine]"
3,0.013,"Fc1ccccc1C1CCN(c2cnn3c(CC4CC4)nnc3c2Cl)CC1 [Example 23, 8-Chloro-3-(cyclopropylmethyl)-7-(4-(2-fluorophenyl)piperidin-1-yl)-[1,2,4]triazolo[4,3-b]pyridazine]"
4,0.028,"COc1cccc(F)c1C1CC1CNc1cnn2c(CC3CC3)nnc2c1Cl (centres unmarked) [Example 39, 8-Chloro-3-(cyclopropylmethyl)-N-((2-(2-fluoro-6-methoxyphenyl)cyclopropyl)methyl)-[1,2,4]triazolo[4,3-b]pyridazin-7-amine]"
5,0.045,"Clc1ccccc1C1CCN(c2cnn3c(CC4CC4)nnc3c2Cl)CC1 [Example 44, 8-Chloro-7-(4-(2-chlorophenyl)piperidin-1-yl)-3-(cyclopropylmethyl)-[1,2,4]triazolo[4,3-b]pyridazine]"
6,0.182,"Cc1c(N2CCC(c3ccccc3)CC2)cnn2c(CC3CC3)nnc12 [Example 6, 3-(Cyclopropylmethyl)-8-methyl-7-(4-phenylpiperidin-1-yl)-[1,2,4]triazolo[4,3-b]pyridazine]"
7,0.004,"Fc1ccccc1C1CCN(c2cnn3c(CC4CC4)nnc3c2C(F)(F)F)CC1 [Example 84, 3-(Cyclopropylmethyl)-7-(4-(2-fluorophenyl)piperidin-1-yl)-8-(trifluoromethyl)-[1,2,4]triazolo[4,3-b]pyridazine]"
8,0.008,"Fc1cc(OC(F)F)c(C2CCN(c3cnn4c(CC5CC5)nnc4c3Cl)CC2)cc1F [Example 52, 8-Chloro-3-(cyclopropylmethyl)-7-(4-(2-(difluoromethoxy)-4,5-difluorophenyl)piperidin-1-yl)-[1,2,4]triazolo[4,3-b]pyridazine]"
9,0.004,"Fc1ccccc1C1CCN(c2ncn3c(CC4CC4)nnc3c2Cl)CC1 [Example 68, 8-Chloro-3-(cyclopropylmethyl)-7-(4-(2-fluorophenyl)piperidin-1-yl)-[1,2,4]triazolo[4,3-c]pyrimidine]"
10,0.225,"Clc1c(NC2CCC(c3ccccc3)CC2)cnn2c(CC3CC3)nnc12 (centres unmarked) [Example 61, 8-Chloro-3-(cyclopropylmethyl)-N-(4-phenylcyclohexyl)-[1,2,4]triazolo[4,3-b]pyridazin-7-amine]"
11,0.425,"CCN(CC1CC1c1ccc(F)cc1)c1cnn2c(CC3CC3)nnc2c1Cl (centres unmarked) [Example 49, 8-Chloro-3-(cyclopropylmethyl)-N-ethyl-N-((2-(4-fluorophenyl)cyclopropyl)methyl)-[1,2,4]triazolo[4,3-b]pyridazin-7-amine]"
12,0.28,"Clc1c(N2CCN(c3ncccn3)CC2)cnn2c(CC3CC3)nnc12 [Example 15, 8-Chloro-3-(cyclopropylmethyl)-7-(4-(pyrimidin-2-yl)piperazin-1-yl)-[1,2,4]triazolo[4,3-b]pyridazine]"
13,0.047,"O=C1Oc2ccccc2C12CCN(c1cnn3c(CC4CC4)nnc3c1Cl)CC2 [Example 62, 1′-(8-Chloro-3-(cyclopropylmethyl)-[1,2,4]triazolo[4,3-b]pyridazin-7-yl)-2H-spiro[benzofuran-3,4′-piperidin]-2-one]"
14,0.069,"FC(F)(F)c1c(N2CCC(c3ccccc3)CC2)ncn2c(CC3CC3)nnc12 [Example 4, 3-(Cyclopropylmethyl)-7-(4-phenylpiperidin-1-yl)-8-(trifluoromethyl)-[1,2,4]triazolo[4,3-c]pyrimidine]"
